# Results reported in US7087634B2, “Cyclic AMP-specific phosphodiesterase inhibitors” (ICOS Corporation, priority 1999, dated 2006).
# How the values were obtained:
# serum TNFα = experiment: Combined mouse endotoxin-stimulated TNFα release assay (serum TNFα); format: in vivo; conditions: female Balb/c mice, i.p., LPS model
# Procedure: The purpose of this study was to determine the efficacy of PDE4 inhibitors in vivo in an LPS mouse model together with a determination with respect to central nervous system (CNS) side-effects manifested by a decrease in spontaneous mobility.
# The test animals were female Balb/c mice, having an average weight of about 20 g. The PDE4 inhibitors, formulated in 30% Cremophor® EL, were administered via intraperitoneal (i.p.) injections at doses of 0.1, 1.0, 10.0, and 100 mg/kg. Individual dose volumes (about 150 μL) were adjusted based on the body weights measured. One hour later, 5 mg/kg LPS in a final volume of 200 μL was injected via the tail vein to each animal. Ninety minutes following the LPS treatment, the animals were bled and serum samples were collected before being stored at −70° C. until assayed.
# For efficacy determination, the serum samples were diluted two-fold and TNFα levels were determined using the CYTOSCREEN® Immunoassay Kit (Biosource International). The data were averaged between triplicate sample subjects for each of the tested compounds.
# PDE5 = target: T1, PDE5 (Homo sapiens, UniProt O76074); experiment: Inhibition of PDE5; format: biochemical
# T1 construct: made in house; host or cells: Saccharomyces cerevisiae BJ2-54
# Procedure: Recombinant production of human PDE1B, PDE2, PDE4A, PDE4B, PDE4C, PDE4D, PDE5, and PDE7 was carried out similarly to that described in Example 7 of U.S. Pat. No. 5,702,936, incorporated herein by reference, except that the yeast transformation vector employed, which is derived from the basic ADH2 plasmid described in Price et al., Methods in Enzymology, 185, pp. 308–318 (1990), incorporated yeast ADH2 promoter and terminator sequences and the Saccharomyces cerevisiae host was the protease-deficient strain BJ2–54 deposited on Aug. 31, 1998 with the American Type Culture Collection, Manassas, Va., under accession number ATCC 74465. Transformed host cells were grown in 2×SC-leu medium, pH 6.2, with trace metals, and vitamins. After 24 hours, YEP medium-containing glycerol was added to a final concentration of 2×YET/3% glycerol. […]
# Phosphodiesterase activity of the preparations was determined as follows. […] The [32P]5′-AMP or [32P]5′-GMP then was quantitatively converted to free [32P]phosphate and unlabeled adenosine or guanosine by the action of snake venom 5′-nucleotidase. […] PDE enzyme was present in quantities that yield <30% total hydrolysis of substrate (linear assay conditions). […] After centrifugation (750×g for 3 minutes) to sediment the charcoal, a sample of the supernatant was taken for radioactivity determination in a scintillation counter and the PDE activity was calculated. […]
smiles,measurement,setting,value
"CCOC(=O)c1c(C)nn(-c2cccc([N+](=O)[O-])c2)c1C [Example 2, 3,5-dimethyl-1-(3-nitrophenyl)-1H-pyrazole-4-carboxylic acid ethyl ester]",% TNFQ Inhibition,serum TNFα; 10 mg/kg,70%
same,% TNFQ Inhibition,serum TNFα; 100 mg/kg,100%
same,IC50,PDE5,25.6 µM
